# Laboratory results published in PubChem BioAssay (NCI).
# Values joined by “and” are separate entries in the source; they are usually repeats but may differ in a detail not shown here. Equal entries are not always repeated.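 Five concentrations, 48 hours, 96-well plates. GI50: concentration for 50% inhibition of growth. At the TGI there is no net growth.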
# Experiments:
# Experiment in all cases: DTP human tumour cell line panel, 48 h
# MCF7 breast = test system: MCF7 breast
# SK-MEL-5 melanoma = test system: SK-MEL-5 melanoma
# A498 renal = test system: A498 renal
# SNB-75 CNS = test system: SNB-75 CNS
# SR leukemia = test system: SR leukemia
# A549 NSCLC = test system: A549 NSCLC
# LOX IMVI melanoma = test system: LOX IMVI melanoma
# SNB-19 CNS = test system: SNB-19 CNS
# SF-268 CNS = test system: SF-268 CNS
# SK-MEL-28 melanoma = test system: SK-MEL-28 melanoma
SMILES,TGI (MCF7 breast),TGI (SK-MEL-5 melanoma),TGI (A498 renal),TGI (SNB-75 CNS),TGI (SR leukemia) [µM],TGI (A549 NSCLC),TGI (LOX IMVI melanoma),TGI (SNB-19 CNS),TGI (SF-268 CNS),TGI (SK-MEL-28 melanoma),GI50 (MCF7 breast),GI50 (SK-MEL-5 melanoma),GI50 (A498 renal),GI50 (SNB-75 CNS) [µM],GI50 (SR leukemia),GI50 (A549 NSCLC),GI50 (LOX IMVI melanoma),GI50 (SNB-19 CNS),GI50 (SF-268 CNS),GI50 (SK-MEL-28 melanoma)
NS(=O)(=O)c1cc(Br)c(N=Nc2ccc(O)c3ncccc23)c(Br)c1,38.5 µM,> 100 µM,67.9 µM,73.7 µM,> 100,60.7 µM,> 100 µM,> 100 µM,> 100 µM,> 100 µM,–,–,–,–,–,–,–,–,–,–
OCc1ccc(-c2ccc(-c3ccc(CO)s3)o2)s1,2.59 µM,69.7 µM,0.0278 µM,80.3 µM,61.1,48.1 µM,79.7 µM,> 100 µM,> 97.1 µM,> 91.9 µM,–,–,–,–,–,–,–,–,–,–
Cc1cc(O)c(/C=N/C(=S)NCc2ccccc2)c(=O)o1,> 100 µM,> 100 µM,> 100 µM,> 100 µM,> 100,> 100 µM,> 100 µM,> 100 µM,> 100 µM,> 100 µM,–,–,–,–,–,–,–,–,–,–
Nc1ncnc2n[nH]c(Nc3ccc(F)cc3)c12,89.3 µM,> 100 µM,92.8 µM,> 100 µM,94.6,> 100 µM,34 µM,> 100 µM,> 100 µM,88.4 µM,27.7 µM,19.6 µM,8.33 µM,31.7,13.3 µM,39.2 µM,10.1 µM,61.7 µM,28.7 µM,24.1 µM
O=C(CCc1nnc2sc(-c3ccc(Cl)cc3Cl)nn12)c1nc2ncccc2[nH]1,> 100 µM,3.09 µM,2.41 µM,3.79 µM,> 100,10.4 µM,3.08 µM,16.7 µM,21.4 µM,5.65 µM,2.59 µM,1.7 µM,1.11 µM,0.459,1.9 µM,2.78 µM,1.69 µM,3.53 µM,3.99 µM,2.44 µM
NC1(C(=O)OCc2ccccc2)CCCC1,> 100 µM,37.4 µM,> 100 µM,35.1 µM,> 100,> 100 µM,37.7 µM,61.1 µM,31.4 µM,48.7 µM,–,–,–,–,–,–,–,–,–,–
O=C(/C=C/c1ccc(Cl)cc1)c1ccc(Nc2ccnc3cc(Cl)ccc23)cc1,> 100 µM,> 53.8 µM,> 71.8 µM,> 100 µM,> 100,> 100 µM,> 100 µM,> 100 µM,> 100 µM,> 100 µM,1.56 µM,–,> 44.7 µM,> 100,0.565 µM,> 100 µM,> 46.6 µM,> 57.6 µM,> 84 µM,31.9 µM
COc1c(Cl)c(=O)oc2ccc(Cl)cc12,> 100 µM,> 100 µM,> 100 µM,> 100 µM,> 100,> 100 µM,> 100 µM,> 100 µM,> 100 µM,> 100 µM,–,–,–,–,–,–,–,–,–,–
CC(C)(C)OC(=O)N[C@H]1CC2(C=C(Cl)C(=O)C(Cl)=C2)OC1=O,23.3 µM,38.5 µM,> 9.94 µM,41.1 µM,> 25,> 100 µM,34.5 µM,> 100 µM,32.3 µM,25 µM,–,–,–,–,–,–,–,–,–,–
Cn1cnc([N+](=O)[O-])c1S(=O)(=O)Oc1cccc2ccccc12,14.5 µM,28.8 µM,27.2 µM,32.3 µM,4.57,52.4 µM,5.73 µM,> 100 µM,33.4 µM,14.5 µM,3.56 µM,13.7 µM,11.8 µM,9.55,1.74 µM,17.5 µM,2.04 µM,29 µM,7.06 µM,4.68 µM
CSc1nc(NC2OCC(OC(C)=O)C(OC(C)=O)C2OC(C)=O)c(N=CC=Nc2c(NC3OCC(OC(C)=O)C(OC(C)=O)C3OC(C)=O)nc(SC)[nH]c2=O)c(=O)[nH]1 (stereo not drawn),> 100 µM,> 100 µM,> 100 µM,57.4 µM,> 100,> 100 µM,> 100 µM,> 85.8 µM,> 100 µM,> 100 µM,–,–,–,–,–,–,–,–,–,–
CC(=O)[C@@]12O[C@@H]1CC1C3CCC4=CC(O)CCC4(C)C3CCC12C (stereo partly drawn),> 100 µM,> 100 µM,59.1 µM,50.8 µM,> 100,> 100 µM,> 100 µM,> 100 µM,> 100 µM,> 100 µM,> 100 µM,> 100 µM,2.04 µM,18.7,> 100 µM,72.7 µM,44.4 µM,38.8 µM,83.5 µM,69.4 µM
Cc1cc2c(cc1Cl)SC(N(N(C)C)S(=O)(=O)c1ccc(Cl)cc1)=NS2(=O)=O,48.3 µM,28.7 µM,37.6 µM,97.5 µM,91.7,> 100 µM,> 100 µM,> 100 µM,> 100 µM,> 100 µM,12.6 µM,15.4 µM,15.8 µM,36,23.3 µM,20.3 µM,33.4 µM,25.2 µM,32.4 µM,29.1 µM
CN(C)CCSC1=Nc2ccc(Cl)cc2C(c2ccccc2Cl)=NC1,25.5 µM and > 100 µM,28.7 µM and > 100 µM,34.2 µM and > 100 µM,33.1 µM and > 100 µM,> 100,31.7 µM and > 100 µM,30.9 µM and > 100 µM,31.1 µM and > 100 µM,28.2 µM and > 100 µM,34.1 µM and > 100 µM,12 µM and 67.4 µM,15 µM and 43.3 µM,18.7 µM and > 100 µM,–,6.68 µM and 42 µM,13.8 µM and 88.8 µM,15.6 µM and 69.7 µM,17.1 µM and > 100 µM,13.9 µM and 99.4 µM,19.4 µM and > 100 µM
O=S(=O)(CCn1c(Sc2ccccc2)c(Sc2ccccc2)c2ccccc21)c1ccccc1,> 100 µM,> 100 µM,> 100 µM,> 100 µM,> 100,> 100 µM,> 100 µM,> 100 µM,> 100 µM,> 100 µM,–,–,–,–,–,–,–,–,–,–
